Results taken from patent publication US11427586B2, “1,2,4-oxadiazole derivatives as liver X receptor agonists” (NOVARTIS AG, priority 2019, dated 2022).
Like-named read-outs stand apart in the source and are kept apart here.

What was measured:
SCD1 = assay: Measurement of SCD1 expression in SZ95-SCD1-HiBit cells (HiBiT assay); type: cell-based; conditions: Homo sapiens, 48 h; for EC50: SCD1 protein production, luminescence, initial dilution 1:3 in DMSO, read-out: HiBit EC50
SZ95 sebocytes = assay: Sentinel Lipid Assay (SLA), desaturation index in SZ95 sebocytes; type: cell-based; conditions: Homo sapiens, 72 h; for EC50: desaturation index, lowest dose used 4.6 nM, read-out: SLA EC50
Method in brief: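 SZ95 human sebocytes on fibronectin-coated plates, dosed 72 h at 37 °C with 1:3 dilutions from 10 μM; lipids extracted with deuterated triglyceride internal standards and quantified by LC-MS/MS (MRM) as 11 sentinel lipids. Desaturation index from elastic-net coefficients, normalized to DMSO; Amax relative to a reference LXR agonist.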

[1] = normalized Amax based on the reference compound Amax of 100%, read-out: HiBit Normalized Amax
[2] = SZ95-SCD1-HiBit cells, compared to reference compound, read-out: HiBit Amax
[3] = normalized Amax based on the reference compound Amax of 100%, read-out: SLA Normalized Amax
[4] = SZ95 cells, compared to reference compound, read-out: SLA Amax

| SMILES | EC50 (SCD1; SZ95-SCD1-HiBit cells) | EC50 (SZ95 sebocytes; SZ95 cells) | Emax (SCD1; [1]) | Emax (SCD1; [2]) | Emax (SZ95 sebocytes; [3]) | Emax (SZ95 sebocytes; [4]) |
| --- | --- | --- | --- | --- | --- | --- |
| CC(C)CS(=O)(=O)c1ccccc1Oc1ccc(-c2noc(CN3C(=O)N(CCN4CCOCC4)C4(CCN(C5CCN(C)C5)CC4)C3=O)n2)cc1C(F)(F)F (stereo not drawn) [Compound 23, 3-((3-(4-(2-(isobutylsulfonyl)phenoxy)-3-(trifluoromethyl)phenyl)-1,2,4-oxadiazol-5-yl)methyl)-8-(1-methylpyrrolidin-3-yl)-1-(2-morpholinoethyl)-1,3,8-triazaspiro[4.5]decane-2,4-dione] | 3.48 nM | ≤ 4.6 nM | 85.1% | 80.9% | 176% | 169% |
| CC(C)CS(=O)(=O)c1ccccc1Oc1ccc(-c2noc(CN3C(=O)N(CCN4CCOCC4)C4(CCN(Cc5cccnn5)CC4)C3=O)n2)cc1C(F)(F)F [Compound 25, 3-((3-(4-(2-(isobutylsulfonyl)phenoxy)-3-(trifluoromethyl)phenyl)-1,2,4-oxadiazol-5-yl)methyl)-1-(2-morpholinoethyl)-8-(pyridazin-3-ylmethyl)-1,3,8-triazaspiro[4.5]decane-2,4-dione] | 1.62 nM | ≤ 4.6 nM | 98.2% | 93.4% | 190% | 182% |
| CC(C)CS(=O)(=O)c1ccccc1Oc1ccc(-c2noc(CN3C(=O)N(CCN4CCOCC4)C4(CCN(CC5CCOCC5)CC4)C3=O)n2)cc1C(F)(F)F [Compound 26, 3-((3-(4-(2-(isobutylsulfonyl)phenoxy)-3-(trifluoromethyl)phenyl)-1,2,4-oxadiazol-5-yl)methyl)-1-(2-morpholinoethyl)-8-((tetrahydro-2H-pyran-4-yl)methyl)-1,3,8-triazaspiro[4.5]decane-2,4-dione] | 0.796 nM | ≤ 4.6 nM | 96.3% | 91.6% | 113% | 108% |
| CC(C)CS(=O)(=O)c1ccccc1Oc1ccc(-c2noc(CN3C(=O)N(CCN4CCOCC4)C4(CCN(C(=O)CC5CC5)CC4)C3=O)n2)cc1C(F)(F)F [Compound 28, 8-(2-cyclopropylacetyl)-3-((3-(4-(2-(isobutylsulfonyl)phenoxy)-3-(trifluoromethyl)phenyl)-1,2,4-oxadiazol-5-yl)methyl)-1-(2-morpholinoethyl)-1,3,8-triazaspiro[4.5]decane-2,4-dione] | 0.697 nM | ≤ 4.6 nM | 74.8% | 71.1% | 145% | 139% |
| CC(C)CS(=O)(=O)c1ccccc1Oc1ccc(-c2noc(CN3C(=O)N(CCN4CCOCC4)C4(CCN(C(=O)c5cncnc5)CC4)C3=O)n2)cc1C(F)(F)F [Compound 29, 3-((3-(4-(2-(isobutylsulfonyl)phenoxy)-3-(trifluoromethyl)phenyl)-1,2,4-oxadiazol-5-yl)methyl)-1-(2-morpholinoethyl)-8-(pyrimidine-5-carbonyl)-1,3,8-triazaspiro[4.5]decane-2,4-dione] | 0.796 nM | ≤ 4.6 nM | 87.7% | 83.4% | 135% | 129% |

Now those with a lower EC50 (SCD1; SZ95-SCD1-HiBit cells), led by results:

| EC50 (SCD1; SZ95-SCD1-HiBit cells) | EC50 (SZ95 sebocytes; SZ95 cells) | SMILES | Emax (SCD1; [1]) | Emax (SCD1; [2]) | Emax (SZ95 sebocytes; [3]) | Emax (SZ95 sebocytes; [4]) |
| --- | --- | --- | --- | --- | --- | --- |
| 0.254 nM | ≤ 4.6 nM | CC(C)CS(=O)(=O)c1ccccc1Oc1ccc(-c2noc(CN3C(=O)N(CCN4CCOCC4)C4(CCN(CC5CC5)CC4)C3=O)n2)cc1C(F)(F)F [Compound 27, 8-(cyclopropylmethyl)-3-((3-(4-(2-(isobutylsulfonyl)phenoxy)-3-(trifluoromethyl)phenyl)-1,2,4-oxadiazol-5-yl)methyl)-1-(2-morpholinoethyl)-1,3,8-triazaspiro[4.5]decane-2,4-dione] | 89.1% | 84.7% | 114% | 109% |
| 0.05 nM | ≤ 4.6 nM | CCN1CCC2(CC1)C(=O)N(Cc1nc(-c3ccc(Oc4ccccc4S(=O)(=O)CC(C)C)c(C(F)(F)F)c3)no1)C(=O)N2CCN1CCOCC1 [Compound 24, 8-ethyl-3-((3-(4-(2-(isobutylsulfonyl)phenoxy)-3-(trifluoromethyl)phenyl)-1,2,4-oxadiazol-5-yl)methyl)-1-(2-morpholinoethyl)-1,3,8-triazaspiro[4.5]decane-2,4-dione] | 117% | 111% | 164% | 158% |
